One data set concerns Sagittaria pygmaea, L. The experiment in a line: Preemergence weed control under flooded paddy conditions, SAGPY (Arrowhead (Pygmaea)). As to herbicidal effect rating, SAGPY: meaning of each grade not given here. The class given is in vivo. Conditions: flooded paddy; for herbicidal effect rating, SAGPY / SAGPY herbicidal rating: preemergence; for SAGPY: preemergence weeds, herbicidal effect rating 0-9, three to four weeks after treatment.
Data set [1] concerns Monochoria vaginalis, Presl. Kind of data set: Preemergence weed control under flooded paddy conditions, MOOVA (Monochoria). As to herbicidal effect rating, MOOVA: meaning of each grade not given here. The class given is in vivo. Particulars: flooded paddy; for herbicidal effect rating, MOOVA / MOOVA herbicidal rating: preemergence; for MOOVA: preemergence weeds, herbicidal effect rating 0-9, three to four weeks after treatment.
Another data set deals with Cyperus iria. The experiment in a line: Preemergence weed control under flooded paddy conditions, CYPIR (Rice Flatsedge). As to herbicidal effect rating, CYPIR: meaning of each grade not given here. The class given is in vivo. Particulars: flooded paddy; for herbicidal effect rating, CYPIR / CYPIR herbicidal rating: preemergence; for CYPIR: preemergence weeds, herbicidal effect rating 0-9, three to four weeks after treatment.
Data set [2] has as its system Echinochloa oryzoides (Ard.) Fritsch. The experiment in a line: Preemergence weed control under flooded paddy conditions, ECHORC (Watergrass (Calif.)). As to herbicidal effect rating, ECHORC: meaning of each grade not given here. The class given is in vivo. Particulars: flooded paddy; for herbicidal effect rating, ECHORC / ECHORC herbicidal rating: preemergence; for ECHORC: preemergence weeds, herbicidal effect rating 0-9, three to four weeks after treatment.

For data set [3], the system named is Oryza sativa, (L.) Tebonnet. Kind of data set: Rice tolerance to post-transplant applications under flooded paddy conditions (Example 187), ORYSAT (Rice, Tebonnet). As to herbicidal effect rating ORYSAT: meaning of each grade not given here. Conditions: for herbicidal effect rating, ORYSAT (rice tolerance) / ORYSAT herbicidal rating (rice tolerance): rated three to four weeks after treatment; for ORYSAT: herbicidal effect rating 0-9, three to four weeks after treatment; for herbicidal effect rating ORYSAT: rated 3-4 weeks after treatment.

Data set [4] concerns Cyperus serotinus, Rottb. The experiment in a line: Preemergence weed control under flooded paddy conditions, CYPSE (Flatsedge). As to herbicidal effect rating, CYPSE: meaning of each grade not given here. The class given is in vivo. Conditions: for herbicidal effect rating, CYPSE / CYPSE herbicidal rating: preemergence; for CYPSE: preemergence weeds, herbicidal effect rating 0-9, three to four weeks after treatment.
Setting [5] is: 0.0313 kg/ha, rated three to four weeks after treatment.
[6] abbreviates: 0.0625 kg/ha, rated three to four weeks after treatment.
The mark [7] stands for this setting: 0.1250 kg/ha, rated three to four weeks after treatment.
[8] abbreviates: 0.2500 kg/ha, rated three to four weeks after treatment.
The mark [9] stands for this setting: 0.0320 kg/ha, rated three to four weeks after treatment.
[10] abbreviates: 0.0620 kg/ha, rated three to four weeks after treatment.
[11] abbreviates: Rate 0.0320 kg/ha, rated 3-4 weeks after treatment.
The mark [12] stands for this setting: Rate 0.0620 kg/ha, rated 3-4 weeks after treatment.
Setting [13] is: Rate 0.1250 kg/ha, rated 3-4 weeks after treatment.
Where [14] appears, read: Rate 0.2500 kg/ha, rated 3-4 weeks after treatment.

Each structure is given as a SMILES string.

For `CCc1ccc(OC(C)C(=O)OC)c(-c2nsc3ccc(-n4c(=O)cc(C(F)(F)F)n(C)c4=O)cc23)c1` (centres unmarked) [Example 28, Methyl 2-{2-{5-[3,6-dihydro-3-methyl-2,6-dioxo-4-(trifluoromethyl)-1(2H)-pyrimidinyl]-1,2-benzisothiazol-3-yl}-4-ethylphenoxy}propionate], the “herbicidal effect rating, SAGPY” value in the data set with Sagittaria pygmaea, L. (setting [5]) is 0.0; in the data set with Sagittaria pygmaea, L. (setting [6]), 2.0; in the data set with Sagittaria pygmaea, L. (setting [7]) it was 4.0; in the data set with Sagittaria pygmaea, L. (setting [8]), 8.0. Moreover, the “herbicidal effect rating, MOOVA” value in data set [1] (setting [5]) is given as 8.0; in data set [1] (setting [6]), 9.0; in data set [1] (setting [7]), 9.0; in data set [1] (setting [8]), 9.0. Further, the “herbicidal effect rating, CYPIR” value in the data set with Cyperus iria (setting [5]) came out at 2.0; in the data set with Cyperus iria (setting [6]) it was 4.0; with Cyperus iria (setting [7]) it was 6.0; with Cyperus iria (setting [8]), 9.0. For the same compound, the “herbicidal effect rating, ECHORC” value in data set [2] (setting [5]) came to 8.0; in data set [2] (setting [6]), 9.0; in data set [2] (setting [7]), 9.0; in data set [2] (setting [8]), 9.0. Further, the “herbicidal effect rating, ORYSAT (rice tolerance)” value is given as 3.0 in data set [3] (0.0313 kg/ha), 4.0 in data set [3] (0.0625 kg/ha), 7.0 in data set [3] (0.1250 kg/ha) and 9.0 in data set [3] (0.2500 kg/ha). Moreover, the “herbicidal effect rating, CYPSE” value turned out to be 0.0 in data set [4] (setting [5]), 0.0 in data set [4] (setting [6]), 0.0 in data set [4] (setting [7]) and 4.0 in data set [4] (setting [8]).
As to `C=CCOc1c(I)cc(C)cc1-c1nsc2ccc(-n3c(=O)cc(C(F)(F)F)n(C)c3=O)cc12` [Example 505, 2,4(1H,3H)-Pyrimidinedione, 3-{3-[6-(allyloxy)-5-iodo-m-tolyl]-1,2-benzisothiazol-5-yl}-1-methyl-6-(trifluoromethyl)-], the SAGPY herbicidal rating in the data set with Sagittaria pygmaea, L. (setting [9]) is recorded as 0.0; in the data set on Sagittaria pygmaea, L. (setting [10]) it was 2.0; in the data set on Sagittaria pygmaea, L. (setting [7]) it was 2.0; in the data set with Sagittaria pygmaea, L. (setting [8]), 4.0. For the same compound, the MOOVA herbicidal rating in data set [1] (setting [9]) is 7.0; in data set [1] (setting [10]), 7.0; in data set [1] (setting [7]), 7.0; in data set [1] (setting [8]), 8.0. The figures for the CYPIR herbicidal rating with Cyperus iria (setting [9]), in the data set with Cyperus iria (setting [7]) and in the data set with Cyperus iria (setting [8]) were 0.0, 3.0 and 4.0, respectively. Besides, the ECHORC herbicidal rating in data set [2] (setting [9]) is on record as 6.0; in data set [2] (setting [10]), 6.0; in data set [2] (setting [7]), 7.0; in data set [2] (setting [8]), 9.0. In addition, the “ORYSAT herbicidal rating (rice tolerance)” value in data set [3] (0.0320 kg/ha) stood at 4.0; in data set [3] (0.0620 kg/ha), 4.0; in data set [3] (0.1250 kg/ha), 4.0; in data set [3] (0.2500 kg/ha), 6.0. For the same compound, the CYPSE herbicidal rating in data set [4] (setting [10]) and in data set [4] (setting [7]) was 0.0 in each case.
As for `Cn1c(C(F)(F)F)cc(=O)n(-c2ccc3snc(C4(C#N)CC4)c3c2)c1=O` [Example 446, Cyclopropanecarbonitrile, 1-{5-[3,6-dihydro-3-methyl-2,6-dioxo-4-(trifluoromethyl)-1(2H)-pyrimidinyl]-1,2-benzisothiazol-3-yl}-], the SAGPY with Sagittaria pygmaea, L. (0.0320 kg/ha) was 9.0; in the data set with Sagittaria pygmaea, L. (0.0620 kg/ha), 9.0; with Sagittaria pygmaea, L. (0.1250 kg/ha), 9.0; in the data set with Sagittaria pygmaea, L. (0.2500 kg/ha) it was 9.0. Moreover, the MOOVA in data set [1] (0.0320 kg/ha), in data set [1] (0.0620 kg/ha), in data set [1] (0.1250 kg/ha) and in data set [1] (0.2500 kg/ha) was 9.0 each time. For the same compound, the CYPIR in the data set on Cyperus iria (0.0320 kg/ha), in the data set on Cyperus iria (0.0620 kg/ha), in the data set with Cyperus iria (0.1250 kg/ha) and with Cyperus iria (0.2500 kg/ha) was 9.0 throughout. Also, the ECHORC worked out at 6.0 in data set [2] (0.0320 kg/ha), 6.0 in data set [2] (0.0620 kg/ha), 7.0 in data set [2] (0.1250 kg/ha) and 9.0 in data set [2] (0.2500 kg/ha). Also, the ORYSAT in data set [3] (0.0320 kg/ha) is listed as 6.0; in data set [3] (0.0620 kg/ha), 7.0; in data set [3] (0.1250 kg/ha) it was 9.0; in data set [3] (0.2500 kg/ha) it was 9.0. For the same compound, the CYPSE in data set [4] (0.0320 kg/ha), in data set [4] (0.0620 kg/ha), in data set [4] (0.1250 kg/ha) and in data set [4] (0.2500 kg/ha) was 9.0 in each case.
Take `C#CCOC(=O)COc1cc2c(cc1-c1nsc3ccc(-n4c(=O)cc(C(F)(F)F)n(C)c4=O)cc13)CCC2` [Example 436, Acetic acid, {{6-{5-[3,6-dihydro-3-methyl-2,6-dioxo-4-(trifluoromethyl)-1(2H)-pyrimidinyl]-1,2-benzisothiazol-3-yl}-5-indanyl}oxy}-, 2-propynyl ester]: the SAGPY with Sagittaria pygmaea, L. (0.0320 kg/ha) was 0.0; in the data set with Sagittaria pygmaea, L. (0.0620 kg/ha), 0.0; in the data set on Sagittaria pygmaea, L. (0.1250 kg/ha), 2.0; in the data set on Sagittaria pygmaea, L. (0.2500 kg/ha), 3.0. For the same compound, the MOOVA in data set [1] (0.0320 kg/ha), in data set [1] (0.0620 kg/ha), in data set [1] (0.1250 kg/ha) and in data set [1] (0.2500 kg/ha) was 9.0 throughout. Moreover, the CYPIR with Cyperus iria (0.0320 kg/ha) is on record as 0.0; in the data set with Cyperus iria (0.0620 kg/ha) it was 2.0; in the data set on Cyperus iria (0.1250 kg/ha), 7.0; with Cyperus iria (0.2500 kg/ha), 7.0. Also, the ECHORC is 6.0 in data set [2] (0.0320 kg/ha), 9.0 in data set [2] (0.0620 kg/ha), 9.0 in data set [2] (0.1250 kg/ha) and 9.0 in data set [2] (0.2500 kg/ha). Further, the ORYSAT amounted to 3.0 in data set [3] (0.0320 kg/ha), 5.0 in data set [3] (0.0620 kg/ha), 7.0 in data set [3] (0.1250 kg/ha) and 6.0 in data set [3] (0.2500 kg/ha). Further, the CYPSE in data set [4] (0.0320 kg/ha) is 4.0; in data set [4] (0.0620 kg/ha) it was 6.0; in data set [4] (0.2500 kg/ha) it was 6.0.
With `Cc1ccc(OCC(=O)OCC(C)(C)Cc2ccccc2)c(-c2nsc3ccc(-n4c(=O)cc(C(F)(F)F)n(C)c4=O)cc23)c1` [Example 527, Acetic acid, {{2-{5-[3,6-dihydro-3-methyl-2,6-dioxo-4-(trifluoromethyl)-1(2H)-pyrimidinyl)-1,2-benzisothiazol-3-yl}-p-tolyl}oxy}-, 2,2-dimethyl-3-phenylpropyl ester], the “herbicidal effect rating, SAGPY” value in the data set on Sagittaria pygmaea, L. (setting [11]) was 0.0; in the data set on Sagittaria pygmaea, L. (setting [12]), 0.0; with Sagittaria pygmaea, L. (setting [13]), 0.0; with Sagittaria pygmaea, L. (setting [14]) it was 0.0. In addition, the “herbicidal effect rating, MOOVA” value in data set [1] (setting [11]), in data set [1] (setting [12]), in data set [1] (setting [13]) and in data set [1] (setting [14]) was 9.0 each time. In addition, the “herbicidal effect rating, CYPIR” value in the data set with Cyperus iria (setting [11]) came out at 2.0; in the data set with Cyperus iria (setting [12]), 2.0; in the data set with Cyperus iria (setting [13]), 4.0; in the data set on Cyperus iria (setting [14]) it was 4.0. In addition, the “herbicidal effect rating, ECHORC” value in data set [2] (setting [11]) is 3.0; in data set [2] (setting [12]), 8.0; in data set [2] (setting [13]) it was 9.0; in data set [2] (setting [14]) it was 9.0. For the same compound, the “herbicidal effect rating ORYSAT” value in data set [3] (Rate 0.0320 kg/ha) is listed as 2.0; in data set [3] (Rate 0.0620 kg/ha), 2.5; in data set [3] (Rate 0.1250 kg/ha), 2.5; in data set [3] (Rate 0.2500 kg/ha) it was 4.0. In addition, the “herbicidal effect rating, CYPSE” value in data set [4] (setting [11]), in data set [4] (setting [12]), in data set [4] (setting [13]) and in data set [4] (setting [14]) was 0.0 in each case.

Values taken from patent EP0908457B1, “3-(1,2-benzisothiazol- and isoxazol-5-Y1)-2,4(1H,3H)-pyrimidinedione or thione and 3-(1,2-benzisothiazol- and isoxazol-5-y1)-4(3H)-pyrimidinone or thione herbicidal agents” (BASF AKTIENGESELLSCHAFT, priority 1997, dated 1999).
